For one assay, the target named is T1, COX-1 (Homo sapiens, UniProt P23219).
T1 construct: host or cells: U-937 human lymphoma cells
As to the kind of experiment: Assay for the COX-1 inhibitory activity using U-937 (PGE2 inhibition). As to conditions: U-937 human lymphoma cells, test compound 1 μM, PGE2 vs DMSO control; read-out: Cyclooxygenase (COX) Inhibition (%) COX-1 (1 μM). In kind it is cell-based. As to the method: The collected cells were diluted with HBSS (×1, Hank's balanced salt solution) to a concentration of 1×10^6 cells/ml. 1 ml of the dilute cell solution was placed into each well of 12-well plates. 5 μl of 1 μM solution of a test compound in DMSO and 5 μl of DMSO as a control were added to the wells. The wells were incubated in CO2 incubator at 37° C. for 15 minutes. Separately, 10 mM stock solution of arachidonic acid in ethanol was diluted ten times in ethanol to prepare 1 mM solution of arachidonic acid. Arachidonic acid acts as a substrate. 10 μl of the 1 mM solution of arachidonic acid was added to each well and incubated at CO2 incubator at 37° C. for 30 minutes. The cell solution of each well was placed in a centrifuge test tube and centrifuged at 10,000 rpm at 4° C. for 5 minutes. The concentration of PGE2 in the collected cells and the supernatant was quantified by means of a monoclonal kit (Cayman Chemicals). The percentages of PGE2 inhibition in a group of the test compound-treated cells in relation to a group of the DMSO-treated cells were calculated. Based on the calculated values, the COX-1 inhibitory activities were evaluated.
(§1) The percentages of the COX inhibition were calculated according to the following equation:
(§2) % Inhibition=(concentration of PGE2 in test compound-untreated sample —concentration of PGE2 in test compound-treated sample)/(concentration of PGE2 in test compound-untreated sample)×100

For the next assay, the target named is T2, COX-2 (Mus musculus, UniProt Q05769).
T2 construct: host or cells: RAW 264.7 cells, aspirin-pretreated, then induced with interferon and LPS
T2 sequence (Q05769 18-604): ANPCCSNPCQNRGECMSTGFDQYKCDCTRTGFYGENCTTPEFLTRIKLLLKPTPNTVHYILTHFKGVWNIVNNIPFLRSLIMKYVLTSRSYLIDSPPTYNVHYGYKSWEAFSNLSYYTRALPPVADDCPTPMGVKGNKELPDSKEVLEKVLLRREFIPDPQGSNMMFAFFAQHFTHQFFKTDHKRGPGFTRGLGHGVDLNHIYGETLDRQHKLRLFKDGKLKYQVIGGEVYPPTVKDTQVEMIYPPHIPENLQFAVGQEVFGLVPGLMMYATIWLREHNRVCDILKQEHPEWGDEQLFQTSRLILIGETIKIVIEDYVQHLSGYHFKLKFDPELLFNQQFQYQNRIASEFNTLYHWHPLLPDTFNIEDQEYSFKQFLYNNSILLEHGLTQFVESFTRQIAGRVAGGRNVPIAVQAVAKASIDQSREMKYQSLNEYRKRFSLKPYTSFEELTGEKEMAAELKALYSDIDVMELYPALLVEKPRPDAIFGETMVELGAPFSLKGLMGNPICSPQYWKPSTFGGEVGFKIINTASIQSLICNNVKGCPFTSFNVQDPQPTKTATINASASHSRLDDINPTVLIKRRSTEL
Briefly: Assay for the COX-2 inhibitory activity using RAW 264.7 cell line (PGE2 inhibition). In kind it is cell-based. The following applies: RAW264.7, RAW 264.7 cells, test compound 10 nM, interferon/LPS 18 hours, read-out: Cyclooxygenase (COX) Inhibition (%) COX-2 (10 nM). As to the method:
Each well was treated with 250 μM of aspirin and incubated at 37° C. for 2 hours. After the culture media were replaced with new culture media, the new culture media were treated with a test compound (10 nM) and incubated for 30 minutes. Then, each well was treated with interferon (100 units/ml) and lipopolysaccharide (LPS, 100 ng/ml) and incubated for 18 hours. The culture media were transferred to other test tubes. The concentration of PGE2 was quantified by means of the EIA kit (Cayman Chemicals).
as §1, §2

T1 sequence (P23219 24-599): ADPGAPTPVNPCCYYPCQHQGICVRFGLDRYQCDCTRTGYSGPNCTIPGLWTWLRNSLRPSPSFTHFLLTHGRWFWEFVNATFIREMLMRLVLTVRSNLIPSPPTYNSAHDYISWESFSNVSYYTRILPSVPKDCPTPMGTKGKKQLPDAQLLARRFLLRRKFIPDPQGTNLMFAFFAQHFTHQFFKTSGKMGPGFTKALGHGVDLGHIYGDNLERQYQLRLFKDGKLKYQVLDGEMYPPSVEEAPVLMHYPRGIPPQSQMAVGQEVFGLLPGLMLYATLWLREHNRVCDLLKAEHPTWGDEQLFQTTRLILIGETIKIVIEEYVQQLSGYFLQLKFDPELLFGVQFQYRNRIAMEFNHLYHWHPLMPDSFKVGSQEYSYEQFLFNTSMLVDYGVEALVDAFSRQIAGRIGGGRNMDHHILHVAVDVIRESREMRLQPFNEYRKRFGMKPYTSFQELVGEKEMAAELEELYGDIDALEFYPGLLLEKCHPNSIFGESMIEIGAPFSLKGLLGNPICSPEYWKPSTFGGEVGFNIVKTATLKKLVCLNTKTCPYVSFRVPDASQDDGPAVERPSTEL

The term inhibition denotes the percentage by which the read-out fell short of the control. `CS(=O)(=O)c1ccc(-n2nc(C(F)(F)F)nc2-c2ccccc2)cc1F` [Example 22, 1-(3-fluoro-4-methanesulfonylphenyl)-5-phenyl-3-trifluoromethyl-1H-1,2,4-triazole]: the inhibition at 1 µM at COX-1 came out at 32.8%. The inhibition at 0.01 µM on COX-2 was 13.7%.

Consider `COc1ccc(-c2nc(C(F)(F)F)nn2-c2ccc(S(C)(=O)=O)c(F)c2)cc1` [Example 23, 1-(3-fluoro-4-methanesulfonylphenyl)-5-(4-methoxyphenyl)-3-trifluoromethyl-1H-1,2,4-triazole], for which, on COX-1, the inhibition at 1 µM worked out at 15.5%. Also, the inhibition at 0.01 µM on COX-2 was found to be 41.2%.

With `CS(=O)(=O)c1ccc(-n2nc(C(F)(F)F)nc2-c2ccc(F)cc2)cc1F` [Example 24, 1-(3-fluoro-4-methanesulfonylphenyl)-5-(4-fluorophenyl)-3-trifluoro methyl-1H-1,2,4-triazole], the inhibition at 1 µM on COX-1 stood at 18.8%. Besides, the inhibition at 0.01 µM at COX-2 was determined as 18.5%.

As to `CS(=O)(=O)c1ccc(-n2nc(C(F)(F)F)nc2-c2ccc(Br)cc2)cc1F` [Example 25, 1-(3-fluoro-4-methanesulfonylphenyl)-5-(4-bromophenyl)-3-trifluoromethyl-1H-1,2,4-triazole], the inhibition at 1 µM at COX-1 was found to be 19.5%. In addition, the inhibition at 0.01 µM at COX-2 worked out at 13.7%.

On to `CS(=O)(=O)c1ccc(-n2nc(C(F)(F)F)nc2-c2ccc(Cl)cc2)cc1F` [Example 26], for which the inhibition at 1 µM at COX-1 was 27.4%. Further, the inhibition at 0.01 µM at COX-2 was determined as 22.3%.

For `Cc1ccc(-c2nc(C(F)(F)F)nn2-c2ccc(S(C)(=O)=O)c(F)c2)cc1` [Example 27, 1-(3-fluoro-4-methanesulfonylphenyl)-5-(4-methylphenyl)-3-trifluoromethyl-1H-1,2,4-triazole], the inhibition at 1 µM at COX-1 is 26.4%. Also, the inhibition at 0.01 µM on COX-2 worked out at 19%.

Consider `CCOc1ccc(-c2nc(C(F)(F)F)nn2-c2ccc(S(C)(=O)=O)c(F)c2)cc1` [Example 28, 1-(3-fluoro-4-methanesulfonylphenyl)-5-(4-ethoxyphenyl)-3-trifluoromethyl-1H-1,2,4-triazole], for which the inhibition at 1 µM at COX-1 is 25.7%. Moreover, the inhibition at 0.01 µM at COX-2 came out at 15.6%.

Take `CS(=O)(=O)c1ccc(-n2nc(C(F)(F)F)nc2-c2cccc(Cl)c2)cc1F` [Example 29, 1-(3-fluoro-4-methanesulfonylphenyl)-5-(3-chlorophenyl)-3-trifluoro methyl-1H-1,2,4-triazole]: the inhibition at 1 µM on COX-1 was 11.1%. At COX-2, the inhibition at 0.01 µM worked out at 16.4%.

As to `CS(=O)(=O)c1ccc(-n2nc(C(F)(F)F)nc2-c2cccc(F)c2)cc1F` [Example 30, 1-(3-fluoro-4-methanesulfonylphenyl)-5-(3-fluorophenyl)-3-trifluoro methyl-1H-1,2,4-triazole], the inhibition at 1 µM at COX-1 was determined as 23.2%. Besides, the inhibition at 0.01 µM at COX-2 came out at 15.1%.

In the case of `COc1ccc(-c2nc(C(F)(F)F)nn2-c2ccc(S(C)(=O)=O)c(F)c2)cc1F` [Example 31, 1-(3-fluoro-4-methanesulfonylphenyl)-5-(3-fluoro-4-methoxyphenyl)-3-trifluoromethyl-1H-1,2,4-triazole], on COX-1, the inhibition at 1 µM is 26.4%. In addition, on COX-2, the inhibition at 0.01 µM turned out to be 16.2%.

On to `Cc1cccc(-c2nc(C(F)(F)F)nn2-c2ccc(S(C)(=O)=O)c(F)c2)c1` [Example 32, 1-(3-fluoro-4-methanesulfonylphenyl)-5-(3-methylphenyl)-3-trifluoromethyl-1H-1,2,4-triazole], for which the inhibition at 1 µM at COX-1 stood at 23.2%. Besides, the inhibition at 0.01 µM on COX-2 came out at 27.8%.

For `CS(=O)(=O)c1ccc(-n2nc(C(F)(F)F)nc2-c2ccc3ccccc3c2)cc1F` [Example 33, 1-(3-fluoro-4-methanesulfonylphenyl)-5-(naphthalene-2-yl)-3-trifluoromethyl-1H-1,2,4-triazole], at COX-1, the inhibition at 1 µM worked out at 44.5%. The inhibition at 0.01 µM at COX-2 is 13.5%.

As for `CS(=O)(=O)c1ccc(-n2nc(C(F)(F)F)nc2-c2ccc3c(c2)OCO3)cc1F` [Example 34, 5-([1,3]benzodioxole-5-yl)-1-(3-fluoro-4-methanesulfonylphenyl)-3-trifluoromethyl-1H-1,2,4-triazole], on COX-1, the inhibition at 1 µM worked out at 11.2%. Further, the inhibition at 0.01 µM at COX-2 stood at 41.5%.

As for `CS(=O)(=O)c1ccc(-n2nc(C(F)(F)F)nc2-c2ccc(F)c(F)c2)cc1F` [Example 35, 1-(3-fluoro-4-methanesulfonylphenyl)-5-(3,4-difluorophenyl)-3-trifluoromethyl-1H-1,2,4-triazole], the inhibition at 1 µM at COX-1 stood at 21.2%. On COX-2, the inhibition at 0.01 µM amounted to 15.5%.

For the origin of these results see US6849652B1, “1,2,4-triazole derivative, method for preparing the same, and pharmaceutical composition containing the same” (CJ Corp., priority 2002, dated 2005).
